Source: patent US12258327B2, “5-membered heteroaryl-containing aminopyridine compounds as EGFR inhibitors” (YUHAN CORPORATION, priority 2021, dated 2025)
Like-named read-outs stand apart in the source and are kept apart here.

Experiments:
EGFR L858R/C797S = EGFR L858R/C797S (Homo sapiens, UniProt P00533, C797S/L858R); experiment: Biochemical EGFR kinase assay (Lance Ultra TR-FRET), double mutant L858R/C797S
Outline: (§1)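 In this biochemical assay, phosphorylation after a one-hour room-temperature reaction was detected with europium-labelled anti-phosphopeptide antibody at 2 nM final concentration.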

EGFR wildtype (WT) = EGFR wildtype (WT) (Homo sapiens, UniProt P00533); experiment: Biochemical EGFR kinase assay (Lance Ultra TR-FRET), wildtype
Outline: as §1

EGFR del19/C797S = EGFR del19/C797S (Homo sapiens, UniProt P00533, C797S/DEL746-750); experiment: Biochemical EGFR kinase assay (Lance Ultra TR-FRET), double mutant del19/C797S
Outline: as §1

EGFR del19/T790M/C797S = EGFR del19/T790M/C797S (Homo sapiens, UniProt P00533, C797S/DEL746-750/T790M); experiment: Biochemical EGFR kinase assay (Lance Ultra TR-FRET), triple mutant del19/T790M/C797S
Outline: as §1

EGFR L858R/T790M/C797S = EGFR L858R/T790M/C797S (Homo sapiens, UniProt P00533, C797S/L858R/T790M); experiment: Biochemical EGFR kinase assay (Lance Ultra TR-FRET), triple mutant L858R/T790M/C797S
Outline: as §1

[1] = IC50 L858R/C797S (nM) 100 μM ATP, 100 μM ATP
[2] = Km ATP, read-out: IC50 L858R/C797S (nM) Km ATP
[3] = IC50 WT (nM) 100 μM ATP, 100 μM ATP
[4] = Km ATP, read-out: IC50 WT (nM) Km ATP
[5] = IC50 del19/C797S (nM) 100 μM ATP, 100 μM ATP
[6] = Km ATP, read-out: IC50 del19/C797S (nM) Km ATP
[7] = IC50 del19/T790M/C797S (nM) 100 μM ATP, 100 μM ATP
[8] = Km ATP, read-out: IC50 del19/T790M/C797S (nM) Km ATP
[9] = IC50 L858R/T790M/C797S (nM) 100 μM ATP, 100 μM ATP
[10] = Km ATP, read-out: IC50 L858R/T790M/C797S (nM) Km ATP
[11] = read-out: IC50 L858R/C797S (nM) 100 μM ATP, 100 μM ATP
[12] = read-out: IC50 WT (nM) 100 μM ATP, 100 μM ATP
[13] = read-out: IC50 del19/C797S (nM) 100 μM ATP, 100 μM ATP
[14] = read-out: IC50 del19/T790M/C797S (nM) 100 μM ATP, 100 μM ATP
[15] = read-out: IC50 L858R/T790M/C797S (nM) 100 μM ATP, 100 μM ATP
[16] = IC50 del19/T790M/C797S, 100 μM ATP
[17] = IC50 L858R/T790M/C797S, 100 μM ATP

Chain of EGFR wildtype (WT) (P00533 25-1210): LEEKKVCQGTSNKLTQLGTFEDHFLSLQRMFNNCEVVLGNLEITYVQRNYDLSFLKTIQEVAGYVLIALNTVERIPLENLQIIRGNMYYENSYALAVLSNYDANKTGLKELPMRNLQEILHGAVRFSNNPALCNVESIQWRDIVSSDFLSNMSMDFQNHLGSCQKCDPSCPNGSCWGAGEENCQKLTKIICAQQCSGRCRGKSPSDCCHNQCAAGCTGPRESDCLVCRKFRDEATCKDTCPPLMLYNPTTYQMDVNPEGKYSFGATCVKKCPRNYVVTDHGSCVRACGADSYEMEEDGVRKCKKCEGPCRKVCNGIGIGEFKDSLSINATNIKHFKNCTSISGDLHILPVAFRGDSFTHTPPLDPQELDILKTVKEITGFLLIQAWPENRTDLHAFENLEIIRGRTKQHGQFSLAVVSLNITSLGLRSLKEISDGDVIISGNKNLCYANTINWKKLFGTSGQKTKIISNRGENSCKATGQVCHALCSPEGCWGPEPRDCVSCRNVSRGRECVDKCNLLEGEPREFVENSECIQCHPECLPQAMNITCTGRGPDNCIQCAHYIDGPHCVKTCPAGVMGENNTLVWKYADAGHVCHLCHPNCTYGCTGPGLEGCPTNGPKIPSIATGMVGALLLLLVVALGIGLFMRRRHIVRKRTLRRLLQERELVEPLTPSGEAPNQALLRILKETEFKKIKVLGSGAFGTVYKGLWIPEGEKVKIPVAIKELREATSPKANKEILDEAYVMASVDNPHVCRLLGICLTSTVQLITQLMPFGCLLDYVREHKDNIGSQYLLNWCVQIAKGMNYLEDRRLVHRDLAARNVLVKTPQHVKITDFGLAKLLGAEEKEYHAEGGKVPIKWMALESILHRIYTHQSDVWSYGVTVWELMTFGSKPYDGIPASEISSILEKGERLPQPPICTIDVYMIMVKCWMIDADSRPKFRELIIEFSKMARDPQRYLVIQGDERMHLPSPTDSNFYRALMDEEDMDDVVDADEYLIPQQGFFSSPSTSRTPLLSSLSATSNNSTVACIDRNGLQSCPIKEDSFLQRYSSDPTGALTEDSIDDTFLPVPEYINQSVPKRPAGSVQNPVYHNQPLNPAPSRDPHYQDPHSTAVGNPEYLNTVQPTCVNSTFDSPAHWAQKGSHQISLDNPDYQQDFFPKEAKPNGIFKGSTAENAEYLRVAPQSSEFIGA
Chain of EGFR L858R/T790M/C797S (P00533 25-1210 T790M/C797S/L858R): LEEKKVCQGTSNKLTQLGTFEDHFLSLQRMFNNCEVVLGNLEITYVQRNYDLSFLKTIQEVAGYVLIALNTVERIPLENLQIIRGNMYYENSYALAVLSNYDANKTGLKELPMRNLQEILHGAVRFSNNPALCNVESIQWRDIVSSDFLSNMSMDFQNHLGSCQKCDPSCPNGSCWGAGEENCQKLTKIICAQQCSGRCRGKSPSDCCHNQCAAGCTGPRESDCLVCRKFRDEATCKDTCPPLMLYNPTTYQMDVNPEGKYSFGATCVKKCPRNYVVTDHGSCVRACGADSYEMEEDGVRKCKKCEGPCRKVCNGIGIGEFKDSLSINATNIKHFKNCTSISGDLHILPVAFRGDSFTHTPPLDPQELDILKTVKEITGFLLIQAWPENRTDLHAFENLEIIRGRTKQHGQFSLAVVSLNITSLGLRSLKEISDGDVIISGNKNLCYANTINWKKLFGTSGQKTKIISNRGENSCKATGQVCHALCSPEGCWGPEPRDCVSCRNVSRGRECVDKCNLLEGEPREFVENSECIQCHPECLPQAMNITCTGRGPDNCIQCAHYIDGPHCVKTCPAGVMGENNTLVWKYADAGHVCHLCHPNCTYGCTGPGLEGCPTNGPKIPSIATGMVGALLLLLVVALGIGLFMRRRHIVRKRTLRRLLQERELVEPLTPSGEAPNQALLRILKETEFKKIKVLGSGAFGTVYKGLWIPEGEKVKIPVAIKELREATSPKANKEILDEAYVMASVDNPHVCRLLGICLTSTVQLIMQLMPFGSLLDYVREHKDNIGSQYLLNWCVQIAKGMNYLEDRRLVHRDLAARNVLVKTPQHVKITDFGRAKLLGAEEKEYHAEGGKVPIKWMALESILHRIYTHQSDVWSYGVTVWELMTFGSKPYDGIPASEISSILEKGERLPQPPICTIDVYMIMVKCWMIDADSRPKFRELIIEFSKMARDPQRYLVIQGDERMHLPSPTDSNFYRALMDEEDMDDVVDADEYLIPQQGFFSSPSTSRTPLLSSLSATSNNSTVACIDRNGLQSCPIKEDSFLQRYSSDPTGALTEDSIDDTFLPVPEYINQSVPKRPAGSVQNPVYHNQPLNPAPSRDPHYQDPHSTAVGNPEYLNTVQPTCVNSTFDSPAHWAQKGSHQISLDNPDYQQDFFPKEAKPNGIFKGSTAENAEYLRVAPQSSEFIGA
Chain of EGFR L858R/C797S (P00533 25-1210 C797S/L858R): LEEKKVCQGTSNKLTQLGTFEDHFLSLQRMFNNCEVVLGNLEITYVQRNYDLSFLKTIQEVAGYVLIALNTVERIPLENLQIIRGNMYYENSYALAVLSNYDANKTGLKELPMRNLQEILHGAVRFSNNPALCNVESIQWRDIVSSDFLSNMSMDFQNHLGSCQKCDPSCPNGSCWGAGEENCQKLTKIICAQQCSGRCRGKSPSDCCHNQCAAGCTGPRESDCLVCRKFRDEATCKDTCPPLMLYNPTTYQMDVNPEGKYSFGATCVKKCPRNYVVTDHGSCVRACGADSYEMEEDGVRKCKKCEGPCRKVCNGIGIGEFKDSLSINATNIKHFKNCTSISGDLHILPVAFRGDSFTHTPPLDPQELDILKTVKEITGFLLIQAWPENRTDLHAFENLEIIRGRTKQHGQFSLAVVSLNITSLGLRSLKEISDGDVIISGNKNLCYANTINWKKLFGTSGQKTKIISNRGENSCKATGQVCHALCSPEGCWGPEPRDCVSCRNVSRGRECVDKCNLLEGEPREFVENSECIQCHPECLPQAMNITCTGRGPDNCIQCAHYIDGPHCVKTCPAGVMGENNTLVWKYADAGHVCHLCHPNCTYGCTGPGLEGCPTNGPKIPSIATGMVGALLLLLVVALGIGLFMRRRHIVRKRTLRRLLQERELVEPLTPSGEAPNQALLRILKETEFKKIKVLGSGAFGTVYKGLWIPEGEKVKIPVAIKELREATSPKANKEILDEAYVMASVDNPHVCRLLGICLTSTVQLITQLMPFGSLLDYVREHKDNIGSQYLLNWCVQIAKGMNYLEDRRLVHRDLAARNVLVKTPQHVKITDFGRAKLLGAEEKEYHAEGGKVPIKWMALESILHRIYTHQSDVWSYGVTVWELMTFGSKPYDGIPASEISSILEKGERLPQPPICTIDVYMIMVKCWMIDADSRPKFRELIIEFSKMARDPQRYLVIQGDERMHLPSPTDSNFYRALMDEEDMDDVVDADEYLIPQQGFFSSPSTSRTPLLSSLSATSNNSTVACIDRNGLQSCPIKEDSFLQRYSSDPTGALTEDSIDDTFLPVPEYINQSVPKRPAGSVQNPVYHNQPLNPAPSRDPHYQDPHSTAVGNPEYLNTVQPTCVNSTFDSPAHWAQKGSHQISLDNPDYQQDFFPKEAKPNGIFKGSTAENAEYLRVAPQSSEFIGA
Chain of EGFR del19/T790M/C797S (P00533 with tags, fused parts or gaps DEL746-750/T790M/C797S): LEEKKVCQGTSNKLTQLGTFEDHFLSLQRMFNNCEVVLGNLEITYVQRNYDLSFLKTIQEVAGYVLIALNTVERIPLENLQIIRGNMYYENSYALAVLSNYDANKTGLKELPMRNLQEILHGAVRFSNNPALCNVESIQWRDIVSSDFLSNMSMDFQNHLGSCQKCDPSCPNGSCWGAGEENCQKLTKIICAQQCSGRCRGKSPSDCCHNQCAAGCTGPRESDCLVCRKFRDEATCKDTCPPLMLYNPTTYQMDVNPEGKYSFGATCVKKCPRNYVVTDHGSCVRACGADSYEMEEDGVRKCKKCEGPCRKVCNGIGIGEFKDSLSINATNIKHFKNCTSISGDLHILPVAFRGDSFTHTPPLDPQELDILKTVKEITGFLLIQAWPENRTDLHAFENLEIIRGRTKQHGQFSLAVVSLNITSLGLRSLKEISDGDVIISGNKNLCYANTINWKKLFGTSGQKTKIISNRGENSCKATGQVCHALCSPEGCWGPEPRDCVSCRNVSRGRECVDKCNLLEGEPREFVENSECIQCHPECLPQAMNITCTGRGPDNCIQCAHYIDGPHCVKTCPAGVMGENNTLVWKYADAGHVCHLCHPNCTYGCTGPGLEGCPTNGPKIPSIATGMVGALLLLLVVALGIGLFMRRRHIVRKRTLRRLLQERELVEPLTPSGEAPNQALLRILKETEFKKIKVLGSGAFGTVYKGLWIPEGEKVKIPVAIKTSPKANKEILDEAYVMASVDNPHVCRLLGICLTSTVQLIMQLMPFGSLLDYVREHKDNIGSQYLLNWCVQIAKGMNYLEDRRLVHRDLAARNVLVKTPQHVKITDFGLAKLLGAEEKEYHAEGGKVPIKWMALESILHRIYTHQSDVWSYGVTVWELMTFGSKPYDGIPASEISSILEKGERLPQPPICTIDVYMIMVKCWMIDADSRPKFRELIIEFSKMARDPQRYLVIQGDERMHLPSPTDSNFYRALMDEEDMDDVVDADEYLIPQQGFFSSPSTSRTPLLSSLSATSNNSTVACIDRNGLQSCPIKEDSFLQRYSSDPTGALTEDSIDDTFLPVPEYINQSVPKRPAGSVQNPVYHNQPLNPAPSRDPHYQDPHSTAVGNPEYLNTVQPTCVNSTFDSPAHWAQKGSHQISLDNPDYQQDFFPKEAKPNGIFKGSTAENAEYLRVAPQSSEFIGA

Row | SMILES | IC50 (EGFR L858R/C797S; [1]) [nM] | IC50 (EGFR L858R/C797S; [2]) [nM] | IC50 (EGFR wildtype (WT); [3]) [nM] | IC50 (EGFR wildtype (WT); [4]) [nM] | IC50 (EGFR del19/C797S; [5]) [nM] | IC50 (EGFR del19/C797S; [6]) [nM] | IC50 (EGFR del19/T790M/C797S; [7]) [nM] | IC50 (EGFR del19/T790M/C797S; [8]) [nM] | IC50 (EGFR L858R/T790M/C797S; [9]) [nM] | IC50 (EGFR L858R/T790M/C797S; [10]) [nM] | also measured
1 | CC1(O)CCC(Nc2cc(Nc3ccnc(-c4cnn(C5CCCO5)c4)n3)ncc2-c2ccn(C(F)F)n2)CC1 (stereo not shown) [Example 318, (1s,4s)-4-((5-(1-(Difluoromethyl)-1H-pyrazol-3-yl)-2-((2-(1-(tetrahydrofuran-2-yl)-1H-pyrazol-4-yl)pyrimidin-4-yl)amino)pyridin-4-yl)amino)-1-methylcyclohexan-1-ol] | 277 | 42.7 | > 10000 | 255 | 290 | 57.1 | 3 | 3.6 | 4.8 | 0.5 | –
2 | CC1(CNc2cc(Nc3ccnc(-c4cnn(S(=O)(=O)C5CC5)c4)n3)ncc2-c2ccn(C(F)F)n2)CCC(O)CC1 (stereo not shown) [Example 128, 4-(((2-((2-(1-(Cyclopropylsulfonyl)-1H-pyrazol-4-yl)pyrimidin-4-yl)amino)-5-(1-(difluoromethyl)-1H-pyrazol-3-yl)pyridin-4-yl)amino)methyl)-4-methylcyclohexan-1-ol] | 1120 | – | > 10000 | – | 40.8 | – | 3.1 | – | 6.4 | – | –
3 | Cc1nn(CC(F)(F)F)cc1-c1nccc(Nc2cc(N[C@H]3CC[C@@H](CCO)CC3)c(-c3ccn(C(F)F)n3)cn2)n1 [Example 326, 2-((1s,4s)-4-((5-(1-(Difluoromethyl)-1H-pyrazol-3-yl)-2-((2-(3-methyl-1-(2,2,2-trifluoroethyl)-1H-pyrazol-4-yl)pyrimidin-4-yl)amino)pyridin-4-yl)amino)cyclohexyl)ethan-1-ol] | – | 7.9 | – | 18.8 | – | 13.3 | – | 1.4 | – | 0.7 | –
4 | CN(C)CCNC1CCC(Nc2cc(Nc3ccnc(-c4cnn(S(=O)(=O)C5CC5)c4)n3)ncc2-c2ccn(C(F)F)n2)CC1 (stereo not shown) [Example 99, N^2-(2-(1-(cyclopropylsulfonyl)-1H-pyrazol-4-yl)pyrimidin-4-yl)-5-(1-(difluoromethyl)-1H-pyrazol-3-yl)-N4-(4-((2-(dimethylamino)ethyl)amino)cyclohexyl)pyridine-2,4-diamine] | 4.8 | – | 612 | – | 1.7 | – | 0.5 | – | 0.8 | – | –
5 | C[C@]1(O)CC[C@@H](Nc2cc(Nc3ccnc(-c4cnn(CC(F)(F)C(F)F)c4)n3)ncc2-c2ccn(C(F)F)n2)CC1 [Example 322, (1s,4s)-4-((5-(1-(Difluoromethyl)-1H-pyrazol-3-yl)-2-((2-(1-(2,2,3,3-tetrafluoropropyl)-1H-pyrazol-4-yl)pyrimidin-4-yl)amino)pyridin-4-yl)amino)-1-methylcyclohexan-1-ol] | – | 15.5 | – | 1520 | – | 176 | – | 1.9 | – | 0.6 | –
6 | CCOC(=O)c1ccn(-c2cnc(Nc3ccnc(-c4cnn(S(=O)(=O)C5CC5)c4)n3)cc2N[C@H]2CC[C@@](C)(O)CC2)n1 [Example 102, Ethyl 1-(6-((2-(1-(cyclopropylsulfonyl)-1H-pyrazol-4-yl)pyrimidin-4-yl)amino)-4-(((1s,4s)-4-hydroxy-4-methylcyclohexyl)amino)pyridin-3-yl)-1H-pyrazole-3-carboxylate] | 123 | 4.4 | > 10000 | 183 | 10.6 | 6.3 | 0.4 | 0.5 | 0.6 | 0.3 | –
7 | Cc1cc(-c2cnc(Nc3ccnc(-c4cnn(S(=O)(=O)C5CC5)c4)n3)cc2N[C@H]2CC[C@@H](C(C)(C)O)CC2)nn1C [Example 281, 2-((1s,4s)-4-((2-((2-(1-(Cyclopropylsulfonyl)-1H-pyrazol-4-yl)pyrimidin-4-yl)amino)-5-(1,5-dimethyl-1H-pyrazol-3-yl)pyridin-4-yl)amino)cyclohexyl)propan-2-ol] | 40.4 | 2.8 | 806 | 2.9 | 1.1 | 0.9 | 2.8 | 1.8 | 2.3 | 0.6 | –
8 | CNC[C@H]1CC[C@H](CNc2cc(Nc3ccnc(-c4cnn(S(=O)(=O)C5CC5)c4)n3)ncc2-c2ccn(C(F)F)n2)CC1 [Example 192, N^2-(2-(1-(Cyclopropylsulfonyl)-1H-pyrazol-4-yl)pyrimidin-4-yl)-5-(1-(difluoromethyl)-1H-pyrazol-3-yl)-N^4-(((1r,4r)-4-((methylamino)methyl)cyclohexyl)methyl)pyridine-2,4-diamine] | 3.7 | 0.4 | 384 | 1.1 | 0.7 | 0.3 | 0.4 | 0.2 | 0.2 | 0.1 | –
9 | O=S(=O)(C1CC1)n1cc(-c2nccc(Nc3cc(N[C@H]4CC[C@](O)(C(F)(F)F)CC4)c(-c4ccn(C(F)F)n4)cn3)n2)cn1 [Example 11, (1s,4s)-4-((2-((2-(1-(Cyclopropylsulfonyl)-1H-pyrazol-4-yl)pyrimidin-4-yl)amino)-5-(1-(difluoromethyl)-1H-pyrazol-3-yl)pyridin-4-yl)amino)-1-(trifluoromethyl)cyclohexan-1-ol] | – | – | – | – | – | – | – | – | – | – | IC50 (EGFR L858R/C797S; [11]): 267 nM; IC50 (EGFR wildtype (WT); [12]): > 10000 nM; IC50 (EGFR del19/C797S; [13]): 553 nM; IC50 (EGFR del19/T790M/C797S; [14]): 8.6 nM; IC50 (EGFR L858R/T790M/C797S; [15]): 21.8 nM
10 | C[C@]1(O)CC[C@@H](Nc2cc(Nc3ccnc(-c4cnn(S(=O)(=O)C5CC5)c4)c3)ncc2-c2ccn(C(F)F)n2)CC1 [Example 354, (1s,4s)-4-((2-((2-(1-(Cyclopropylsulfonyl)-1H-pyrazol-4-yl)pyridin-4-yl)amino)-5-(1-(difluoromethyl)-1H-pyrazol-3-yl)pyridin-4-yl)amino)-1-methylcyclohexan-1-ol] | – | – | – | – | – | – | – | – | – | – | IC50 (EGFR L858R/C797S; IC50 L858R/C797S, 100 μM ATP): 2540 nM; IC50 (EGFR wildtype (WT); IC50 WT, 100 μM ATP): > 10000 nM; IC50 (EGFR del19/C797S; IC50 del19/C797S, 100 μM ATP): 135 nM; IC50 (EGFR del19/T790M/C797S; [16]): 2 nM; IC50 (EGFR L858R/T790M/C797S; [17]): 13.1 nM
11 | CN(C)CCCn1ccc(-c2cnc(Nc3ccnc(-c4cnn(S(=O)(=O)C5CC5)c4)n3)cc2N[C@H]2CC[C@@H](C(C)(C)O)CC2)n1 [Example 278, 2-((1s,4s)-4-((2-((2-(1-(Cyclopropylsulfonyl)-1H-pyrazol-4-yl)pyrimidin-4-yl)amino)-5-(1-(3-(dimethylamino)propyl)-1H-pyrazol-3-yl)pyridin-4-yl)amino)cyclohexyl)propan-2-ol] | 3.4 | 0.3 | 669 | 1.2 | 1 | 0.6 | 0.4 | 0.6 | 0.3 | 0.1 | –
12 | O=S(=O)(C1CC1)n1cc(-c2nccc(Nc3cc(N[C@H]4CC[C@@H](NCCF)CC4)c(-c4csc(C(F)(F)F)n4)cn3)n2)cn1 [Example 50, N^2-(2-(1-(Cyclopropylsulfonyl)-1H-pyrazol-4-yl)pyrimidin-4-yl)-N^4-((1s,4s)-4-((2-fluoroethyl)amino)cyclohexyl)-5-(2-(trifluoromethyl)thiazol-4-yl)pyridine-2,4-diamine] | – | – | – | – | – | – | – | – | – | – | IC50 (EGFR L858R/C797S; [11]): 42.2 nM; IC50 (EGFR wildtype (WT); [12]): > 10000 nM; IC50 (EGFR del19/C797S; [13]): 25.6 nM; IC50 (EGFR del19/T790M/C797S; [14]): 1.1 nM; IC50 (EGFR L858R/T790M/C797S; [15]): 1.6 nM
13 | Cn1ccc(-c2cnc(Nc3ccnc(-c4cnn(S(=O)(=O)C5CC5)c4)n3)cc2N[C@H]2CC[C@@H](O)CC2)n1 [Example 79, (1s,4s)-4-((2-((2-(1-(Cyclopropylsulfonyl)-1H-pyrazol-4-yl)pyrimidin-4-yl)amino)-5-(1-methyl-1H-pyrazol-3-yl)pyridin-4-yl)amino)cyclohexan-1-ol] | 0.8 | – | 58.1 | – | 0.7 | – | 0.5 | – | 0.5 | – | –
14 | C[C@]1(CO)C[C@@H](Nc2cc(Nc3ccnc(-c4cnn(S(=O)(=O)C5CC5)c4)n3)ncc2-c2ccn(C(F)F)n2)C1 [Example 378, ((1s,3s)-3-((2-((2-(1-(Cyclopropylsulfonyl)-1H-pyrazol-4-yl)pyrimidin-4-yl)amino)-5-(1-(difluoromethyl)-1H-pyrazol-3-yl)pyridin-4-yl)amino)-1-methylcyclobutyl)methanol] | – | – | – | – | – | – | – | – | – | – | IC50 (EGFR L858R/C797S; IC50 L858R/C797S, 100 μM ATP): 518 nM; IC50 (EGFR L858R/C797S; Km ATP, read-out: IC50 L858R/C797S, Km ATP): 14.4 nM; IC50 (EGFR wildtype (WT); IC50 WT, 100 μM ATP): > 10000 nM; IC50 (EGFR wildtype (WT); Km ATP, read-out: IC50 WT, Km ATP): 254 nM; IC50 (EGFR del19/C797S; IC50 del19/C797S, 100 μM ATP): 23.9 nM; IC50 (EGFR del19/C797S; Km ATP, read-out: IC50 del19/C797S, Km ATP): 16.7 nM; IC50 (EGFR del19/T790M/C797S; [16]): 1.7 nM; IC50 (EGFR del19/T790M/C797S; Km ATP, read-out: IC50 del19/T790M/C797S, Km ATP): 1.2 nM; IC50 (EGFR L858R/T790M/C797S; [17]): 3.1 nM; IC50 (EGFR L858R/T790M/C797S; Km ATP, read-out: IC50 L858R/T790M/C797S, Km ATP): 0.3 nM
